Source: the NIST ThermoML archive (doi:10.1016/j.tca.2015.06.017)

Test: xn = mol fraction of the nth substance listed
Settings: Liquid, Vibrating tube method

CC(C)(C)Cl [2-chloro-2-methylpropane] + CCCCCCC
mass density [kg/m3]
Settings	293.15 K	298.15 K
100 kPa, x2 = 0.0554	–	824.75
100 kPa, x2 = 0.1017	–	814.99
100 kPa, x2 = 0.2004	–	795.33
100 kPa, x2 = 0.3016	–	776.67
100 kPa, x2 = 0.4097	–	758.26
100 kPa, x2 = 0.498	–	744.32
100 kPa, x2 = 0.5983	–	729.58
100 kPa, x2 = 0.7017	–	715.49
100 kPa, x2 = 0.7995	–	703.09
100 kPa, x2 = 0.9032	–	690.79
100 kPa, x2 = 0.9482	–	685.68
2000 kPa, x2 = 0.0554	–	827.29
2000 kPa, x2 = 0.1017	–	817.46
2000 kPa, x2 = 0.2004	–	797.78
2000 kPa, x2 = 0.3016	–	778.97
2000 kPa, x2 = 0.4097	–	760.5
2000 kPa, x2 = 0.498	–	746.66
2000 kPa, x2 = 0.5983	–	731.77
2000 kPa, x2 = 0.7017	–	717.66
2000 kPa, x2 = 0.7995	–	705.19
2000 kPa, x2 = 0.9032	–	692.86
2000 kPa, x2 = 0.9482	–	687.76
5000 kPa, x2 = 0.0554	–	831.22
5000 kPa, x2 = 0.1017	–	821.35
5000 kPa, x2 = 0.2004	–	801.38
5000 kPa, x2 = 0.3016	–	782.63
5000 kPa, x2 = 0.4097	–	763.93
5000 kPa, x2 = 0.498	–	749.94
5000 kPa, x2 = 0.5983	–	734.95
5000 kPa, x2 = 0.7017	–	720.69
5000 kPa, x2 = 0.7995	–	708.17
5000 kPa, x2 = 0.9032	–	695.72
5000 kPa, x2 = 0.9482	–	690.58
7000 kPa, x2 = 0.0554	–	833.69
7000 kPa, x2 = 0.1017	–	823.79
7000 kPa, x2 = 0.2004	–	803.89
7000 kPa, x2 = 0.3016	–	784.93
7000 kPa, x2 = 0.4097	–	766.14
7000 kPa, x2 = 0.498	–	752.1
7000 kPa, x2 = 0.5983	–	737.06
7000 kPa, x2 = 0.7017	–	722.75
7000 kPa, x2 = 0.7995	–	710.2
7000 kPa, x2 = 0.9032	–	697.64
7000 kPa, x2 = 0.9482	–	692.49
10000 kPa, x2 = 0.0554	–	837.41
10000 kPa, x2 = 0.1017	–	827.3
10000 kPa, x2 = 0.2004	–	807.34
10000 kPa, x2 = 0.3016	–	788.26
10000 kPa, x2 = 0.4097	–	769.41
10000 kPa, x2 = 0.498	–	755.22
10000 kPa, x2 = 0.5983	–	740.1
10000 kPa, x2 = 0.7017	–	725.72
10000 kPa, x2 = 0.7995	–	712.96
10000 kPa, x2 = 0.9032	–	700.3
10000 kPa, x2 = 0.9482	–	695.09
20000 kPa, x2 = 0.0554	–	848.71
20000 kPa, x2 = 0.1017	–	838.45
20000 kPa, x2 = 0.2004	–	818.1
20000 kPa, x2 = 0.3016	–	798.58
20000 kPa, x2 = 0.4097	–	779.66
20000 kPa, x2 = 0.498	769.27	765.11
20000 kPa, x2 = 0.5983	753.74	749.57
20000 kPa, x2 = 0.7017	738.84	734.93
20000 kPa, x2 = 0.7995	725.88	721.79
20000 kPa, x2 = 0.9032	712.92	708.9
20000 kPa, x2 = 0.9482	707.57	703.58
30000 kPa, x2 = 0.0554	863.54	858.8
30000 kPa, x2 = 0.1017	853.13	848.35
30000 kPa, x2 = 0.2004	832.13	827.76
30000 kPa, x2 = 0.3016	812.29	807.95
30000 kPa, x2 = 0.4097	792.63	788.48
30000 kPa, x2 = 0.498	777.78	773.73
30000 kPa, x2 = 0.5983	762.02	758.07
30000 kPa, x2 = 0.7017	746.9	743.08
30000 kPa, x2 = 0.7995	733.66	729.79
30000 kPa, x2 = 0.9032	720.51	716.58
30000 kPa, x2 = 0.9482	715.09	711.27
40000 kPa, x2 = 0.0554	872.42	867.89
40000 kPa, x2 = 0.1017	862.05	857.39
40000 kPa, x2 = 0.2004	840.65	836.44
40000 kPa, x2 = 0.3016	820.63	816.41
40000 kPa, x2 = 0.4097	800.54	796.66
40000 kPa, x2 = 0.498	785.54	781.69
40000 kPa, x2 = 0.5983	769.5	765.72
40000 kPa, x2 = 0.7017	754.19	750.52
40000 kPa, x2 = 0.7995	740.77	737.07
40000 kPa, x2 = 0.9032	727.37	723.74
40000 kPa, x2 = 0.9482	721.88	718.29
50000 kPa, x2 = 0.0554	880.62	876.38
50000 kPa, x2 = 0.1017	870	865.68
50000 kPa, x2 = 0.2004	848.46	844.44
50000 kPa, x2 = 0.3016	828.17	824.32
50000 kPa, x2 = 0.4097	807.96	804.27
50000 kPa, x2 = 0.498	792.71	789.1
50000 kPa, x2 = 0.5983	776.5	772.96
50000 kPa, x2 = 0.7017	761.01	757.53
50000 kPa, x2 = 0.7995	747.33	743.9
50000 kPa, x2 = 0.9032	733.84	730.37
50000 kPa, x2 = 0.9482	728.3	724.81
60000 kPa, x2 = 0.0554	888.24	884.1
60000 kPa, x2 = 0.1017	877.59	873.27
60000 kPa, x2 = 0.2004	855.9	852
60000 kPa, x2 = 0.3016	835.3	831.63
60000 kPa, x2 = 0.4097	814.87	811.3
60000 kPa, x2 = 0.498	799.57	796.01
60000 kPa, x2 = 0.5983	783.15	779.73
60000 kPa, x2 = 0.7017	767.47	764.12
60000 kPa, x2 = 0.7995	753.62	750.3
60000 kPa, x2 = 0.9032	739.97	736.68
60000 kPa, x2 = 0.9482	734.33	731.11
65000 kPa, x2 = 0.0554	891.92	887.83
65000 kPa, x2 = 0.1017	881.11	877.03
65000 kPa, x2 = 0.2004	859.41	855.63
65000 kPa, x2 = 0.3016	838.73	834.93
65000 kPa, x2 = 0.4097	818.27	814.66
65000 kPa, x2 = 0.498	802.79	799.35
65000 kPa, x2 = 0.5983	786.25	782.96
65000 kPa, x2 = 0.7017	770.47	767.16
65000 kPa, x2 = 0.7995	756.52	753.28
65000 kPa, x2 = 0.9032	742.75	739.66
65000 kPa, x2 = 0.9482	737.09	734.01
